Legend:
[1] = solubility in water (statement in Example 3); assay type: physicochemical; details: stated to explain the reaction speed in the madder root extraction mixture
Description: After analysis of the reaction mixture it follows that within 60 minutes all LP is converted into LUC. After the reaction vessel is opened, LUC is converted into NOR, a step which takes 6 hours. When oxygen is present LUC can not be detected, which means that its conversion is much faster than in the present experimental situation. […] Therefore, it is in general difficult for the enzyme to oxidize the solid LUC to NOR. However, when the reaction is performed under oxygen LUC cannot crystalize, because it is immediately oxidized to NOR.

[2] = stated as known, no test described; cited from earlier work

| Compound | solubility in water [1] | mutagenicity [2] |
| --- | --- | --- |
| O=C1c2ccccc2C(=O)c2c1cc(O)c(CO)c2O [LUC, lucidin] | not soluble in water | mutagenic |
| O=Cc1c(O)cc2c(c1O)C(=O)c1ccccc1C2=O [NOR, nordamnacanthal] | insoluble in water | – |
